Results on one substance are retold here after US11235976B2, “Nanocarbon-iron composite system as well as composition, preparation method and use thereof” (Chongqing Lummy Pharmaceutical Co., LTD, priority 2017, dated 2022).

Assay in all cases: Cell experiment, cell survival rate
What all share (type): cell-based
Holding throughout (conditions): 48 h

The subject of one test is A549 lung cancer cells. The method, then:
(§1) Cells growing in a log phase are collected, the concentration of the cell suspension is adjusted, 100 μL of cell suspension is added to each well and the cells are plated (edge wells are filled with sterile PBS) at a density of 1×10^3-10^4 cells/well. The cells are incubated for 24 hours at 37° C. under the condition of 5% CO2, a nanocarbon-iron solution having a concentration gradient (nanocarbon content: 125, 62.5, 15.63 and 3.91 μg/mL; and ferric ion content: 13.65, 6.83, 1.71 and 0.43 μg/mL) is added, and three sub-wells are set. Then the cells are incubated for 48 hours at 37° C. under the condition of 5% CO2. 10 μL of CCK8 solution is added to each well and then the cells are continuously incubated for 2 hours. The absorbance of each well is measured at OD=450 nm with the microplate reader. In addition, a negative control group, nanocarbon control groups having the same concentration and iron preparation control groups having the same concentration are set.
as §1, with “and 1” for “100”, “of a 6-well plate” for “and the cells are plated (edge wells are filled with sterile PBS)”, “3×10^4” for “1×10^3-10^4”, “1.71,” for “1.71 and”, “The” for “10 μL of CCK8 solution is added to each well and then the”, “trypsinized and counted.” for “continuously incubated for 2 hours. The absorbance of each well is measured at OD=450 nm with the microplate reader.”

Test [1] has as its system HCT116 colon cancer cells. On the procedure:
as §1
as §1, with “and 1” for “100”, “of a 6-well plate” for “and the cells are plated (edge wells are filled with sterile PBS)”, “3×10^4” for “1×10^3-10^4”, “1.71,” for “1.71 and”, “The” for “10 μL of CCK8 solution is added to each well and then the”, “trypsinized and counted.” for “continuously incubated for 2 hours. The absorbance of each well is measured at OD=450 nm with the microplate reader.”

Test [2] deals with Hela cervical cancer cells. The method, then:
as §1
as §1, with “and 1” for “100”, “of a 6-well plate” for “and the cells are plated (edge wells are filled with sterile PBS)”, “3×10^4” for “1×10^3-10^4”, “1.71,” for “1.71 and”, “The” for “10 μL of CCK8 solution is added to each well and then the”, “trypsinized and counted.” for “continuously incubated for 2 hours. The absorbance of each well is measured at OD=450 nm with the microplate reader.”

The test system of test [3] is MDA-MB-231 breast cancer cells. The method, then: as §1
as §1, with “and 1” for “100”, “of a 6-well plate” for “and the cells are plated (edge wells are filled with sterile PBS)”, “3×10^4” for “1×10^3-10^4”, “1.71,” for “1.71 and”, “The” for “10 μL of CCK8 solution is added to each well and then the”, “trypsinized and counted.” for “continuously incubated for 2 hours. The absorbance of each well is measured at OD=450 nm with the microplate reader.”

In test [4] the test system is SGC-7901 stomach cancer cells. On the procedure:
as §1
as §1, with “and 1” for “100”, “of a 6-well plate” for “and the cells are plated (edge wells are filled with sterile PBS)”, “3×10^4” for “1×10^3-10^4”, “1.71,” for “1.71 and”, “The” for “10 μL of CCK8 solution is added to each well and then the”, “trypsinized and counted.” for “continuously incubated for 2 hours. The absorbance of each well is measured at OD=450 nm with the microplate reader.”

Test [5] relates to SKOV3 ovarian cancer cells. On the procedure:
as §1
as §1, with “and 1” for “100”, “of a 6-well plate” for “and the cells are plated (edge wells are filled with sterile PBS)”, “3×10^4” for “1×10^3-10^4”, “1.71,” for “1.71 and”, “The” for “10 μL of CCK8 solution is added to each well and then the”, “trypsinized and counted.” for “continuously incubated for 2 hours. The absorbance of each well is measured at OD=450 nm with the microplate reader.”

The mark [6] stands for this setting: iron preparation alone 0.43 μg/mL.
[7] abbreviates: iron preparation alone 1.71 μg/mL.
[8] abbreviates: iron preparation alone 6.83 μg/mL.
Where [9] appears, read: iron preparation alone 13.65 μg/mL.

On to ammonium ferric citrate, for which the “Cell Survival Rate” value came out at 97.21% in the test with A549 lung cancer cells (setting [6]); 99.64% in the test with A549 lung cancer cells (setting [7]); 95.76% with A549 lung cancer cells (setting [8]); 94.67% with A549 lung cancer cells (setting [9]); 97.31% in test [1] (setting [6]); 98.12% in test [1] (setting [7]). In addition, the “Cell Survival Rate” value stood at 94.03% in test [1] (setting [8]); 95.31% in test [1] (setting [9]); 100% in test [2] (setting [6]); 99.34% in test [2] (setting [7]); 97.46% in test [2] (setting [8]); 93.67% in test [2] (setting [9]). Also, the “Cell Survival Rate” value is recorded as 100% in test [3] (setting [6]); 100% in test [3] (setting [7]); 97.28% in test [3] (setting [8]); 95.12% in test [3] (setting [9]); 97.85% in test [4] (setting [6]); 95.31% in test [4] (setting [7]). In addition, the “Cell Survival Rate” value is 96.41% in test [4] (setting [8]); 100% in test [4] (setting [9]); 95.67% in test [5] (setting [6]); 99.46% in test [5] (setting [7]); 94.36% in test [5] (setting [8]).
